{"source": "paper PMC7377239", "about": "“Cardiovascular Effects of Polychlorinated Biphenyls and Their Major Metabolites” (Environmental Health Perspectives, 2020)", "key": {"[1]": {"system": "HUVECs", "experiment": "Tube formation (tubulogenesis) assay in HUVECs, 18 h", "type": "cell-based, human", "details": "Homo sapiens, HUVEC, 18 h, HUVECs; for activity at 0.1 µM: 0.10 µM; for minimal effective concentration: top concentration 100.00 µM", "description": "Similar to the cultivation of iCell®-endothelial cells, HUVEC maintenance and experimentation are detailed elsewhere ([Iwata et al. 2017]). Briefly, HUVECs were thawed, seeded, and grown in T75 tissue culture flasks in Medium 199 with EGM™-2 BulletKits™. HUVECs were incubated at regular cell culture conditions, 37°C and 5% CO2 , and passaged every 2–3 d using TrypLE™ Express. To ensure adequate endothelial function, experiments were performed with cells between passages 1 and 5.\nTube formation assays were performed on Geltrex™ LDEV-free reduced growth factor basement membrane using both iCell®-endothelial cells and HUVECs in 384-well format exactly as detailed in Iwata et al. ([2017]). Negative controls included media-only and vehicle control (i.e., 0.5% vol/vol DMSO in cell culture media) wells. Positive assay controls were consistent with previously published reports ([Iwata et al. 2017]) and included TAB ( 50μM ) as a cytotoxic control, and nocodazole ( 0.01–1μM ), suramin ( 0.5–50μM ), histamine ( 0.1–100μM ), and chloroquine ( 1–500μM ) as chemicals associated with specific effects on ECs. Each test chemical was screened in triplicate for each concentration. Briefly, for iCell®-endothelial cells, starvation media consisted of VascuLife® basal medium with 4 mM L-glutamine LifeFactor and 0.1% iCell®-endothelial cells medium supplement. To counter dilution effects, a 2× concentration of the HUVEC maintenance medium supplemented with additional VEGF was created (EGM™-2 BulletKits™ at 2× concentration; also the VEGF component was replaced with 12.5 ng/mL VEGF). Geltrex™ LDEV-free reduced growth factor basement membrane was thawed overnight and dispensed into 384-well plates ( 10μL/well ) with tapping and rotating to evenly coat. The plates were incubated for 1 h in a cell culture incubator at 37°C and 5% CO2 . A 2× PCB plate (containing all of the PCBs and metabolites in dose–response) was prepared in basal media and added, 25μL per well, to the Geltrex™ coated plates. On separate plates, cells were seeded 7,500 (iPSC- ECs) or 3,500 (HUVEC) cells/well. Cells were exposed to chemicals overnight at 37°C and 5% CO2 and stained with 3× concentration of calcein AM ( 25μL /well, 6μmol/L ) for 15 min before imaging. Images were captured at 4× magnification with the FITC filter (calcein AM). Images were analyzed with the angiogenesis module software within MetaXpress™ (Molecular Devices).\n(§1) Phenotypic responses were quantitatively assessed using concentration–response modeling as detailed elsewhere ([Sirenko et al. 2017]). Briefly, phenotypic readouts were normalized to vehicle controls and fit to a four-parameter logistic model in R studio software (version 3.1.1; R Development Core Team). Following EPA guidance on dose–response modeling, a cutoff of one standard deviation across means of vehicle control (i.e., 0.5% vol/vol DMSO in cell culture media) wells was applied to determine the point-of-departure (POD) values ([U.S. EPA 2012]). In the absence of a concentration–response, the highest tested concentration (i.e., 100μM ) was assigned as “no observable adverse effect level.” The concentration–response assessment R script, as well as templates for vehicle and concentration–response data, are available as a supplement to Sirenko et al. ([2017]). The ability of physicochemical properties to predict differences in PODs were evaluated by multiregression and mixed-effects modeling using R."}, "[2]": {"system": "iCell endothelial cells (human iPSC-derived ECs)", "experiment": "High-content imaging cytotoxicity in iCell endothelial cells, 24 h", "type": "cell-based", "details": "Homo sapiens, Endothelial cell, iPSC-EC, 24 hr; for viability at 0.1 µM / activity at 0.1 µM: 0.10 µM; for minimal effective concentration: top concentration 100.00 µM", "description": "The culture conditions of iCell®-endothelial cells were as reported elsewhere ([Iwata et al. 2017]). Briefly, T75 flasks were coated with a fibronectin solution ( 3 μg/cm^2 ) followed by incubation for 1–2 h. Cells were thawed for 3 min in a 37°C water bath. Thawed cells were added to maintenance medium made of VascuLife VEGF Medium Complete Kit, excluding the supplied FBS, and iCell® Endothelial Cells Medium Supplement. The final formulation of the maintenance medium is detailed in ([Iwata et al. 2017]). The aliquoted fibronectin solution was aspirated from the T75 flasks, and cells were seeded at 1.0×10^4 cells/cm^2 . Cells were maintained at 37°C and 5% CO2 with media changes occurring every 2 d and passaged every 3–4 d using TrypLE™ Express. All experiments were conducted on cells between passages 1 and 5.\nCytotoxicity was assessed in parallel experiments. For iCell®-endothelial cells, 384-well plates were coated with a 30μg/mL fibronectin solution ( 10μL/well ) and incubated for 2 h at RT. iCell®-endothelial cells were dissociated with TrypLE™ Express and prepared into a solution to achieve 750 cells per well and 50μL of total volume. The fibronectin solution was removed from the 384-well plate, and cells were plated. For HUVECs, similar dissociation and the same cell density were used for plating with the exclusion of the fibronectin solution. Cells were incubated at 37°C and 5% CO2 until a monolayer was formed, typically 3–5 d. 2×PCB plates were created with the requisite maintenance medium. Before treatment, the medium in the wells was exchanged to 25μL/well of fresh maintenance medium. 2×PCB chemical solutions ( […] ) were added. After 24 h incubation at 37°C and 5% CO2 , cells were stained with Hoechst 33342, MitoTracker™ Orange, and calcein AM for 20 min before replacing the staining media with FluoroBright DMEM. Cell culture plates were imaged using the ImageXpress® Micro Confocal high-content imaging system (Molecular Devices). Images were acquired at 10× magnification with DAPI, TRITC, or FITC filter (Hoechst 33342, MitoTracker™, or calcein AM, respectively). The multiwavelength cell scoring applications module in MetaXpress™ (Molecular Devices) was used to analyze the images.\nas §1"}, "[3]": {"details": "0.00 µM = 100.00, read-out: huvec.mtl.18hr"}, "[4]": {"details": "0.00 µM = 100.00, read-out: huvec.tlps.18hr"}, "[5]": {"details": "0.00 µM = 100.00, read-out: huvec.tta.18hr"}, "[6]": {"details": "0.00 µM = 100.00, read-out: huvec.ttl.18hr"}, "[7]": {"details": "0.00 µM control = 100.00, read-out: endo.cyto.24hr"}, "[8]": {"details": "0.00 µM control = 100.00, read-out: endo.mito.24hr"}, "[9]": {"details": "0.00 µM control = 100.00, read-out: endo.mitoint.24hr"}, "[10]": {"details": "0.00 µM control = 100.00, read-out: endo.nma.24hr"}, "[11]": {"details": "0.00 µM control = 100.00, read-out: endo.tc.24hrs"}}, "note": "Counter-ions that a name gives are not always drawn. Like-named read-outs stand apart in the source and are kept apart here."}
{"smiles": "O=S(=O)(O)Oc1cc(Cl)c(-c2cc(Cl)ccc2Cl)cc1Cl", "note": "[4-yl PCB 52 sulfate]", "values": [{"measurement": "activity at 0.01 µM", "setting": "[1]; [3]", "result": 91.2, "unit": "%"}, {"measurement": "activity at 0.01 µM", "setting": "[1]; [4]", "result": 86.7, "unit": "%"}, {"measurement": "activity at 0.01 µM", "setting": "[1]; [5]", "result": 66.3, "unit": "%"}, {"measurement": "activity at 0.01 µM", "setting": "[1]; [6]", "result": 59.7, "unit": "%"}, {"measurement": "activity at 0.1 µM", "setting": "[1]; [3]", "result": 103, "unit": "%"}, {"measurement": "activity at 0.1 µM", "setting": "[1]; [4]", "result": 108, "unit": "%"}, {"measurement": "activity at 0.1 µM", "setting": "[1]; [5]", "result": 99.9, "unit": "%"}, {"measurement": "activity at 0.1 µM", "setting": "[1]; [6]", "result": 89.7, "unit": "%"}, {"measurement": "activity at 1 µM", "setting": "[1]; [3]", "result": 99, "unit": "%"}, {"measurement": "activity at 1 µM", "setting": "[1]; [4]", "result": 111, "unit": "%"}, {"measurement": "activity at 1 µM", "setting": "[1]; [5]", "result": 97.7, "unit": "%"}, {"measurement": "activity at 1 µM", "setting": "[1]; [6]", "result": 87.2, "unit": "%"}, {"measurement": "activity at 10 µM", "setting": "[1]; [3]", "result": 93.2, "unit": "%"}, {"measurement": "activity at 10 µM", "setting": "[1]; [4]", "result": 84.7, "unit": "%"}, {"measurement": "activity at 10 µM", "setting": "[1]; [5]", "result": 79.1, "unit": "%"}, {"measurement": "activity at 10 µM", "setting": "[1]; [6]", "result": 70.9, "unit": "%"}, {"measurement": "activity at 100 µM", "setting": "[1]; [3]", "result": 61.8, "unit": "%"}, {"measurement": "activity at 100 µM", "setting": "[1]; [4]", "result": 26.3, "unit": "%"}, {"measurement": "activity at 100 µM", "setting": "[1]; [5]", "result": 85.2, "unit": "%"}, {"measurement": "activity at 100 µM", "setting": "[1]; [6]", "result": 94.3, "unit": "%"}, {"measurement": "minimal effective concentration", "setting": "[1]; read-out: huvec.mtl.18hr POD", "result": 14.6, "unit": "µM"}, {"measurement": "minimal effective concentration", "setting": "[1]; read-out: huvec.tlps.18hr POD", "result": 10.1, "unit": "µM"}, {"measurement": "minimal effective concentration", "setting": "[1]; read-out: huvec.tta.18hr POD", "result": 100, "unit": "µM"}, {"measurement": "minimal effective concentration", "setting": "[1]; read-out: huvec.ttl.18hr POD", "result": 100, "unit": "µM"}, {"measurement": "viability at 0.01 µM", "setting": "[2]; [7]", "result": 99.1, "unit": "%"}, {"measurement": "activity at 0.01 µM", "setting": "[2]; [8]", "result": 98.6, "unit": "%"}, {"measurement": "activity at 0.01 µM", "setting": "[2]; [9]", "result": 93.7, "unit": "%"}, {"measurement": "activity at 0.01 µM", "setting": "[2]; [10]", "result": 105, "unit": "%"}, {"measurement": "viability at 0.01 µM", "setting": "[2]; [11]", "result": 99.1, "unit": "%"}, {"measurement": "viability at 0.1 µM", "setting": "[2]; [7]", "result": 92.5, "unit": "%"}, {"measurement": "activity at 0.1 µM", "setting": "[2]; [8]", "result": 92.7, "unit": "%"}, {"measurement": "activity at 0.1 µM", "setting": "[2]; [9]", "result": 90.1, "unit": "%"}, {"measurement": "activity at 0.1 µM", "setting": "[2]; [10]", "result": 105, "unit": "%"}, {"measurement": "viability at 0.1 µM", "setting": "[2]; [11]", "result": 92.5, "unit": "%"}, {"measurement": "viability at 1 µM", "setting": "[2]; [7]", "result": 95.5, "unit": "%"}, {"measurement": "activity at 1 µM", "setting": "[2]; [8]", "result": 96.1, "unit": "%"}, {"measurement": "activity at 1 µM", "setting": "[2]; [9]", "result": 96.9, "unit": "%"}, {"measurement": "activity at 1 µM", "setting": "[2]; [10]", "result": 102, "unit": "%"}, {"measurement": "viability at 1 µM", "setting": "[2]; [11]", "result": 95.5, "unit": "%"}, {"measurement": "viability at 10 µM", "setting": "[2]; [7]", "result": 104, "unit": "%"}, {"measurement": "activity at 10 µM", "setting": "[2]; [8]", "result": 103, "unit": "%"}, {"measurement": "activity at 10 µM", "setting": "[2]; [9]", "result": 82.8, "unit": "%"}, {"measurement": "activity at 10 µM", "setting": "[2]; [10]", "result": 99.1, "unit": "%"}, {"measurement": "viability at 10 µM", "setting": "[2]; [11]", "result": 104, "unit": "%"}, {"measurement": "viability at 100 µM", "setting": "[2]; [7]", "result": 71.2, "unit": "%"}, {"measurement": "activity at 100 µM", "setting": "[2]; [8]", "result": 66.7, "unit": "%"}, {"measurement": "activity at 100 µM", "setting": "[2]; [9]", "result": 92.6, "unit": "%"}, {"measurement": "activity at 100 µM", "setting": "[2]; [10]", "result": 104, "unit": "%"}, {"measurement": "viability at 100 µM", "setting": "[2]; [11]", "result": 71.4, "unit": "%"}, {"measurement": "minimal effective concentration", "setting": "[2]; read-out: endo.cyto.24hr POD", "result": 41.2, "unit": "µM"}, {"measurement": "minimal effective concentration", "setting": "[2]; read-out: endo.mito.24hr POD", "result": 41.2, "unit": "µM"}, {"measurement": "minimal effective concentration", "setting": "[2]; read-out: endo.mitoint.24hr POD", "result": 100, "unit": "µM"}, {"measurement": "minimal effective concentration", "setting": "[2]; read-out: endo.nma.24hr POD", "result": 100, "unit": "µM"}, {"measurement": "minimal effective concentration", "setting": "[2]; read-out: endo.tc.24hrs POD", "result": 50.3, "unit": "µM"}]}
